According to PMC12081876, “Identification of PTGR2 inhibitors as a new therapeutic strategy for diabetes and obesity” (EMBO Molecular Medicine, 2025):
Several values for one entry are separate records, joined by “and”; a condition that tells them apart may be missing. Equal entries are not always repeated.

Assays:
[1] = tested on: differentiated 3T3-L1 adipocytes; test: Insulin-stimulated glucose uptake assay by (3H)2-deoxyglucose; assay type: cell-based, mouse; set-up: insulin-stimulated glucose uptake, Fig 1J replicates / Figure 5E raw value, insulin-stimulated glucose uptake (replicates): unit not given here
Description: The cell lines, which were tested for mycoplasma contamination and authenticated, were purchased from the Bioresource Collection and Research Center, Taiwan. All cells were cultured at 37 °C, 5% CO2 in a humidified incubator. HEK293T cells were maintained in DMEM (cat. no. SH30003.02, HyClone) supplemented with 10% fetal bovine serum (FBS) (cat. no. 04-001-1A, Biological Industries) and 1% antibiotic/antimycotic solution (cat. no. SV30079.01, HyClone). 3T3-L1 preadipocytes were maintained at ~70% confluence in DMEM with 10% calf serum (cat. no. 16170078, Gibco) and 1% antibiotic/antimycotic solution. For adipocyte differentiation, confluent 3T3-L1 cells (defined as day 0) were exposed to an induction medium containing 10% FBS, 1 μM dexamethasone (cat. no. D4902, Sigma-Aldrich), and 1 μg/ml insulin (Humulin R, Eli Lilly) in DMEM with or without 0.5 mM isobutyl-methylxanthine (cat. no. sc-201188A, Santa Cruz Biotechnology) as indicated. After two days, the medium was replaced with DMEM containing 10% FBS and 1 μg/ml insulin and was replenished every two days until assay.
Differentiated 3T3-L1 cells were starved with serum-free DMEM containing 0.2% BSA (cat. no. A9647, Sigma-Aldrich). Cells were rinsed twice with KRH buffer (137 mM NaCl, 4.7 mM KCl, 1.85 mM CaCl2, 1.3 mM MgSO4, 50 mM HEPES and 0.1% BSA, pH 7.4), and treated with or without […] insulin in the presence of 20 μM cytochalasin B (cat. no. 11328, Cayman Chemical), a GLUT inhibitor for measuring non-specific glucose uptake, for 30 min. Cells were then incubated with 0.5 μCi [^3H]-2-deoxy-D-Glucose (cat. no. NET328A001MC, PerkinElmer) and 0.1 μM 2-deoxy-D-Glucose (2DG) (cat. no. 14325, Cayman Chemical) for 5 min. Uptake of 2DG was terminated by rapidly removing medium and washing with ice-cold PBS three times. Cells were lysed with 0.1% SDS, and the radioactivity was measured using a liquid scintillation counter. Insulin-mediated glucose uptake was calculated by subtracting insulin-treated glucose uptake with basal glucose uptake.

[2] = tested on: HFHSD-fed obese C57BL6/J mice; test: Body weight / diet-induced obesity in HFHSD-fed mice; assay type: in vivo, mouse; details: 40 mg/kg/day ip; for Body weight, individual mice / Body weight, Average: in g (unit assumed)
[3] = tested on: HFHSD-fed obese C57BL6/J mice; test: Intraperitoneal glucose tolerance test (ipGTT); assay type: in vivo, mouse; set-up: Figure 2H Average (glucose, ipGTT) / ipGTT / ipGTT glucose, Average / Blood glucose during glucose tolerance test (Figure 5L), Average: unit not given here; details: for ipGTT: individual mice
Description: (§1) Glucose tolerance was evaluated by the oral (OGTT) and intraperitoneal glucose tolerance test (ipGTT) after a 6-h fast. For the OGTT, glucose water (1 mg/g) was given by oral gavage, and tail blood glucose was measured with a glucometer (ACCU-CHEK Performa, Roche) at 0, 15, 30, 45, 60, 90, and 120 min. For the ipGTT, tail blood glucose was measured at 0, 15, 30, 45, 60, 90, and 120 min after intraperitoneal injection of glucose water (1 mg/g). For the insulin tolerance test (ITT), mice were fasted for 4 h and then injected intraperitoneally with 1 U/kg of insulin (Humulin R, Eli Lilly). Tail blood glucose was measured at 0, 15, 30, 45, 60, 90, 120, and 180 min.

[4] = tested on: HFHSD-fed obese C57BL6/J mice; test: Insulin tolerance test (ITT); assay type: in vivo, mouse; set-up: Figure 2I Average (glucose, ITT) / ITT / ITT glucose, Average / Blood glucose during insulin tolerance test (Figure 5M), Average: unit not given here; details: for ITT: individual mice
Description: as §1

[5] = 40 mg/kg/day ip, 3 weeks, HFHSD-fed mice, vs vehicle

CCCCCC(=O)/C=C/[C@H]1[C@H](O)CC(=O)[C@@H]1C/C=C\CCCC(=O)O [15-keto-PGE2, 15-keto-prostaglandin E2]
insulin-stimulated glucose uptake, Fig 1J replicates ([1]; 15kPGE2 1): 1.328 and 1.441 and 0.8491 and 1.4653
insulin-stimulated glucose uptake, Fig 1J replicates ([1]; 15kPGE2 5): 3.521 and 4.331 and 2.858 and 2.553
insulin-stimulated glucose uptake, Fig 1J replicates ([1]; 15kPGE2 10): 4.083 and 4.476 and 3.119 and 3.373
insulin-stimulated glucose uptake ([1]; differentiated 3T3-L1 adipocytes): increased insulin-stimulated glucose uptake in differentiated 3T3-L1 adipocytes dose-dependently
diet-induced obesity (body weight) ([2]; 3 weeks, HFHSD-fed mice, vs vehicle): protected against diet-induced obesity
Body weight, individual mice ([2]; treatment day 1, 40 mg/kg/day): 31.70 and 29.90 and 31.10 and 26.25 and 27.55
Body weight, Average ([2]; treatment day 1): 29.83
Body weight, individual mice ([2]; treatment day 2, 40 mg/kg/day): 31.55 and 28.75 and 30.85 and 26.15 and 27.85
Body weight, Average ([2]; treatment day 2): 29.61
Body weight, Average ([2]; treatment day 3, 40 mg/kg/day): 29.4
Body weight, individual mice ([2]; treatment day 3, 40 mg/kg/day): 31.60 and 29.00 and 30.75 and 25.90 and 26.35
Body weight, individual mice ([2]; treatment day 4, 40 mg/kg/day): 32.50 and 27.95 and 30.90 and 25.75 and 26.90
Body weight, Average ([2]; treatment day 4): 29.42
Body weight, individual mice ([2]; treatment day 5, 40 mg/kg/day): 32.50 and 26.45 and 30.70 and 25.35 and 26.25
Body weight, Average ([2]; treatment day 5): 29.42
Body weight, individual mice ([2]; treatment day 6, 40 mg/kg/day): 32.60 and 26.45 and 30.00 and 25.75
Body weight, Average ([2]; treatment day 6): 29.49
Body weight, individual mice ([2]; treatment day 7, 40 mg/kg/day): 32.60 and 26.55 and 30.10 and 26.40
Body weight, Average ([2]; treatment day 7): 29.61
Body weight, individual mice ([2]; treatment day 8, 40 mg/kg/day): 31.90 and 27.35 and 30.10 and 25.05
Body weight, Average ([2]; treatment day 8): 29.92
Body weight, individual mice ([2]; treatment day 9, 40 mg/kg/day): 31.40 and 28.05 and 30.70 and 25.90
Body weight, Average ([2]; treatment day 9): 29.95
Body weight, individual mice ([2]; treatment day 10, 40 mg/kg/day): 30.70 and 28.45 and 30.20 and 26.55 and 27.35
Body weight, Average ([2]; treatment day 10): 29.99
Body weight, individual mice ([2]; treatment day 11, 40 mg/kg/day): 31.60 and 28.55 and 30.40 and 27.50 and 26.90
Body weight, Average ([2]; treatment day 11): 30.05
Body weight, Average ([2]; treatment day 12, 40 mg/kg/day): 30.2
Body weight, individual mice ([2]; treatment day 12, 40 mg/kg/day): 31.60 and 29.05 and 30.95 and 27.45 and 27.10
Body weight, individual mice ([2]; treatment day 13, 40 mg/kg/day): 31.75 and 30.2 and 31.6 and 28.55 and 28.05
Body weight, Average ([2]; treatment day 13): 30.36
Body weight, individual mice ([2]; treatment day 14, 40 mg/kg/day): 31.65 and 30.50 and 31.35 and 28.35 and 27.80
Body weight, Average ([2]; treatment day 14): 30.49
Body weight, individual mice ([2]; treatment day 15, 40 mg/kg/day): 31.70 and 29.55 and 30.65 and 27.45 and 27.00
Body weight, Average ([2]; treatment day 15): 30.22
Body weight, individual mice ([2]; treatment day 16, 40 mg/kg/day): 31.85 and 29.40 and 30.30 and 27.00 and 26.50
Body weight, Average ([2]; treatment day 16): 30.12
Body weight, individual mice ([2]; treatment day 17, 40 mg/kg/day): 32.75 and 29.85 and 31.95 and 27.85 and 26.80
Body weight, Average ([2]; treatment day 17): 30.56
Body weight, individual mice ([2]; treatment day 18, 40 mg/kg/day): 31.80 and 29.75 and 32.10 and 27.75
Body weight, Average ([2]; treatment day 18): 30.63
Body weight, individual mice ([2]; treatment day 19, 40 mg/kg/day): 33.15 and 31.50 and 32.00 and 28.35 and 27.70
Body weight, Average ([2]; treatment day 19): 30.65
Body weight, individual mice ([2]; treatment day 20, 40 mg/kg/day): 33.10 and 30.85 and 31.55 and 27.75 and 27.15
Body weight, Average ([2]; treatment day 20): 30.69
Body weight, individual mice ([2]; treatment day 21, 40 mg/kg/day): 32.55 and 30.9 and 31.6 and 28 and 28.15
Body weight, Average ([2]; treatment day 21): 30.73
glucose tolerance (ipGTT) [3, 5]: markedly improved
ipGTT ([3]; 0 min): 105 and 98 and 102 and 88 and 151 and 155 and 75 and 78 and 93 and 125 and 111
ipGTT ([3]; 15 min): 222 and 226 and 190 and 213 and 239 and 234 and 324 and 231 and 152 and 188 and 183 and 251 and 245 and 276
ipGTT ([3]; 30 min): 262 and 264 and 155 and 201 and 221 and 211 and 273 and 247 and 125 and 124 and 200 and 186 and 235 and 231 and 280
ipGTT ([3]; 45 min): 229 and 251 and 162 and 188 and 184 and 199 and 252 and 215 and 109 and 112 and 132 and 155 and 211 and 175 and 213
ipGTT ([3]; 60 min): 262 and 225 and 130 and 171 and 177 and 179 and 196 and 206 and 110 and 120 and 89 and 133 and 182 and 155 and 205
ipGTT ([3]; 90 min): 208 and 191 and 114 and 152 and 166 and 143 and 171 and 181 and 88 and 108 and 112 and 151 and 124
ipGTT ([3]; 120 min): 166 and 121 and 99 and 122 and 118 and 90 and 69 and 80 and 108 and 131 and 100 and 135
Figure 2H Average (glucose, ipGTT) ([3]; time 0): 108.467
Figure 2H Average (glucose, ipGTT) ([3]; time 15): 223.8
Figure 2H Average (glucose, ipGTT) ([3]; time 30): 214.333
Figure 2H Average (glucose, ipGTT) ([3]; time 45): 185.8
Figure 2H Average (glucose, ipGTT) ([3]; time 60): 169.333
Figure 2H Average (glucose, ipGTT) ([3]; time 90): 144.2
Figure 2H Average (glucose, ipGTT) ([3]; time 120): 109.267
insulin sensitivity (ITT) [4, 5]: markedly improved
ITT ([4]; 0 min): 113 and 114 and 91 and 147 and 149 and 115 and 92 and 118 and 94 and 110 and 98 and 125
ITT ([4]; 15 min): 59 and 78 and 70 and 67 and 83 and 90 and 111 and 75 and 45 and 63 and 82 and 49 and 92
ITT ([4]; 30 min): 56 and 79 and 54 and 62 and 52 and 71 and 66 and 57 and 43 and 75 and 46
ITT ([4]; 45 min): 34 and 60 and 37 and 51 and 42 and 62 and 56 and 47 and 44 and 30 and 54 and 50 and 29
ITT ([4]; 60 min): 23 and 57 and 21 and 58 and 46 and 66 and 49 and 34 and 31 and 26 and 51 and 53 and 50 and 39 and 29
ITT ([4]; 90 min): 22 and 65 and 25 and 41 and 63 and 57 and 31 and 37 and 56 and 38 and 49 and 24 and 27
ITT ([4]; 120 min): 46 and 53 and 25 and 39 and 54 and 62 and 47 and 31 and 70 and 51 and 36
ITT ([4]; 180 min): 98 and 66 and 25 and 65 and 84 and 62 and 77 and 73 and 54 and 78 and 69 and 82
Figure 2I Average (glucose, ITT) ([4]; time 0): 112.333
Figure 2I Average (glucose, ITT) ([4]; time 15): 74.4667
Figure 2I Average (glucose, ITT) ([4]; time 30): 60.8
Figure 2I Average (glucose, ITT) ([4]; time 45): 46.2667
Figure 2I Average (glucose, ITT) ([4]; time 60): 42.2
Figure 2I Average (glucose, ITT) ([4]; time 90): 41.1333
Figure 2I Average (glucose, ITT) ([4]; time 120): 45.6667
Figure 2I Average (glucose, ITT) ([4]; time 180): 67.6667
